Laboratory results published in patent US10385019B2, “Inhibitors of EGFR and methods of use thereof” (Dana-Farber Cancer Institute, Inc., priority 2015, dated 2019).

Biological target: T1, L858R mutant EGFR (Homo sapiens, UniProt P00533, L858R)
T1 construct: Constructs spanning residues 696-1022 of the human EGFR; GST (cleaved yes); made in house; host or cells: Sf9 insect cells
Assay: HTRF-based EGFR biochemical assay
Settings: relative to L858R/T790M and T790M mutants
Method: EGFR biochemical assays are carried out using a homogeneous time-resolved fluorescence (HTRF) assay. The reaction mixtures contain biotin-Lck-peptide substrate, wild type, or mutant EGFR enzyme in reaction buffer. Enzyme concentrations are adjusted to accommodate varying kinase activity and ATP concentrations. Compounds of the present disclosure are diluted into the assay mixture and IC50 values are determined using 12-point inhibition curves.
Constructs spanning residues 696-1022 of the human EGFR (including wild type and L858R, L858R/T790M, T790M, and T790M/V948R mutant sequences) were prepared in a GST-fusion format using the pTriEX system (Novagen) for expression in Sf9 insect cells essentially as described. […]
EGFR biochemical assays were carried out using a homogeneous time-resolved fluorescence (HTRF) assay as described previously. […] Five μL per well of the detection reagent containing 2.5 ng PT66K (Cis-bio) and 0.05 μg SAXL (Prozyme) were added, and the plates were then incubated at room temperature for 1 hour and read with an EnVision plate reader.

T1 sequence (P00533 696-1022 L858R): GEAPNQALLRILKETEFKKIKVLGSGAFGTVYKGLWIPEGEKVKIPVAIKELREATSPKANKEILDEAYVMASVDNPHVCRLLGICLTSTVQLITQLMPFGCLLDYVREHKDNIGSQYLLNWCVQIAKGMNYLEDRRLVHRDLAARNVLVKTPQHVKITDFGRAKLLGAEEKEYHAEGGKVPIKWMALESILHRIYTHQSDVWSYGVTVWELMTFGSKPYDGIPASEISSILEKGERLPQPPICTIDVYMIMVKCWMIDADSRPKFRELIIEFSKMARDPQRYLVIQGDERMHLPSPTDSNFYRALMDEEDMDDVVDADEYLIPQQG

## O=C(Nc1nccs1)C(c1ccccc1)N1Cc2ccccc2C1=O (stereo not shown) [Compound A1]
  decreased potency against L858R mutant EGFR: approximately 2 fold
